Results as given in patent US11312713B2, “Imidazo[4,5-C]quinoline derivatives as LRRK2 inhibitors” (Pfizer Inc., priority 2017, dated 2022).
Read-outs that look alike come from different tables or passages of the source.

What was measured:
mutant G2019S LRRK2 = mutant G2019S LRRK2 (Homo sapiens (Human), UniProt Q5S007, G2019S); test: LRRK2 kinase assay (LanthaScreen), G2019S mutant; format: biochemical; settings: G2019S mutant LRRK2; LanthaScreen, LRRKtide substrate; read-out: LRRK2, G2019S IC50
mutant G2019S LRRK2, sequence (Q5S007 whole entry G2019S, the tested form may be a part): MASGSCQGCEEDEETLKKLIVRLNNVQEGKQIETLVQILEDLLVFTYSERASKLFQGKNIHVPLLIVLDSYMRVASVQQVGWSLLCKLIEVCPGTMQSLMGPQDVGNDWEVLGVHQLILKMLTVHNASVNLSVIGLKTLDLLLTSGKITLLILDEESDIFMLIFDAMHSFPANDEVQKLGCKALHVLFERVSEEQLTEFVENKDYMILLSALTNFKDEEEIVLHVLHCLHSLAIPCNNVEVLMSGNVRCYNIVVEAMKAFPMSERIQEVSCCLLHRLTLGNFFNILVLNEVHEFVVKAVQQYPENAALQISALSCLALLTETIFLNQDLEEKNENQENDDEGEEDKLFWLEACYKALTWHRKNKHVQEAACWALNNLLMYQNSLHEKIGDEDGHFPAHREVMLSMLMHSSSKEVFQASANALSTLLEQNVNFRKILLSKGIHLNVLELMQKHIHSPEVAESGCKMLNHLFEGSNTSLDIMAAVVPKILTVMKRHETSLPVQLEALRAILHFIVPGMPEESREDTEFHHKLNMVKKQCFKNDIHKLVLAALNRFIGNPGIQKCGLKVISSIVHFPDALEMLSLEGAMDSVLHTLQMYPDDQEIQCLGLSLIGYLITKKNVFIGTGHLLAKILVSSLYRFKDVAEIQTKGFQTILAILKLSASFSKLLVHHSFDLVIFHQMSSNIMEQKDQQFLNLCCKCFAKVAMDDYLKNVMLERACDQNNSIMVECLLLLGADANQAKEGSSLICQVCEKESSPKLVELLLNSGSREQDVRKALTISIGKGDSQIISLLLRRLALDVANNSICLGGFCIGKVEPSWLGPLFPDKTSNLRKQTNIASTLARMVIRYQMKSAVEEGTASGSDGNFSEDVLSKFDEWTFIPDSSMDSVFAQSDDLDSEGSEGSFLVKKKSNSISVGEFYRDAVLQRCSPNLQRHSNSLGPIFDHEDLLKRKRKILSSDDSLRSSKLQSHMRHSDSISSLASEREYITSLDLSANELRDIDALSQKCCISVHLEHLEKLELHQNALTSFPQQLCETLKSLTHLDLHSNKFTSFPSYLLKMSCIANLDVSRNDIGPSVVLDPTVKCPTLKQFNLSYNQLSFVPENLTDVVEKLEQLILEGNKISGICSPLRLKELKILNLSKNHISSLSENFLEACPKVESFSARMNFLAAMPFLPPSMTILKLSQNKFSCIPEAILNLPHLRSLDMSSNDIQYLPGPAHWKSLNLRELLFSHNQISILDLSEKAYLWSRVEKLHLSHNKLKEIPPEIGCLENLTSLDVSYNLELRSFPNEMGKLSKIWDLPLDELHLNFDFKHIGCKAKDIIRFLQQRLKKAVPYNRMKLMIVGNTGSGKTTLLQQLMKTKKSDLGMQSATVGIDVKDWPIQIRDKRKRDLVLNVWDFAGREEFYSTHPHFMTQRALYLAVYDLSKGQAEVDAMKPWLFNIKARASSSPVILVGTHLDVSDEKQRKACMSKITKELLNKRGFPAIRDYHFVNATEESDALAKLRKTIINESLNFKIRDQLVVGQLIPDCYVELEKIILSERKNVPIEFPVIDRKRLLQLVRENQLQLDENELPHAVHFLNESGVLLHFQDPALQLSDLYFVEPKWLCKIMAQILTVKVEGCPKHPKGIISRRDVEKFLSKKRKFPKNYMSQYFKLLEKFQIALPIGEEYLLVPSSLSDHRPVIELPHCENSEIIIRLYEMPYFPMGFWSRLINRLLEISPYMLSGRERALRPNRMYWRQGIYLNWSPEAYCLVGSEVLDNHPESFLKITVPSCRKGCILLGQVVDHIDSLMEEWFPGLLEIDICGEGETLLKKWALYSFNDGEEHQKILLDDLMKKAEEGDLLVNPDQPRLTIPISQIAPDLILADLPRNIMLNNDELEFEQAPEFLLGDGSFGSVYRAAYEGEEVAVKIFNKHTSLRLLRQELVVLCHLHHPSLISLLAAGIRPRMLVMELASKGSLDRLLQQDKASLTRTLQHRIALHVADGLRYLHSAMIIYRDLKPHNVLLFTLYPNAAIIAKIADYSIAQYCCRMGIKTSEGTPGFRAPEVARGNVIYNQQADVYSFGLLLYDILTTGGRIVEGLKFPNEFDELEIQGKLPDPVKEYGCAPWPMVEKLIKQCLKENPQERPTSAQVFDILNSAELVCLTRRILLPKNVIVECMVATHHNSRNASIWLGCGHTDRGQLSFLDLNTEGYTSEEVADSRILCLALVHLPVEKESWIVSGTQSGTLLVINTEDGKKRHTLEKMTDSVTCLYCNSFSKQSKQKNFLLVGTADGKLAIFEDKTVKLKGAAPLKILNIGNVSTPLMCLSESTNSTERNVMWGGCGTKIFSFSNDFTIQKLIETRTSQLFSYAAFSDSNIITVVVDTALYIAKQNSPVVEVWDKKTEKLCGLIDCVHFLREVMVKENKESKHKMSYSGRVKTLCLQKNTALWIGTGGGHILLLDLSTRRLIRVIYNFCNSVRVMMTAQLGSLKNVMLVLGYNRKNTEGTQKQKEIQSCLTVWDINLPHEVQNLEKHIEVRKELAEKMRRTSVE
Procedure: (§1) LRRK2 kinase activity was measured using Lantha Screen technology from Invitrogen. GST-tagged truncated LRRK2 from Invitrogen (Cat #PV4874) was incubated with a fluorescein-labeled peptide substrate based upon ezrin/radixin/moesin (ERM), also known as LRRKtide (Invitrogen cat #PR8976A), in the presence of a dose response of compound. Upon completion, the assay was stopped and detected with a terbium labeled anti-phospho-ERM antibody (Invitrogen, cat #PR8975A). […] Using Echo acoustic dispensing, 60 nL of compound was transferred to a low volume Corning 384-well assay plate. 3 μL of a working solution of substrate (200 nM LRRKtide, 2 mM ATP) prepared in assay buffer (50 mM HEPES, pH 7.5, 3 mM MgCl2, with 2 mM DTT and 0.01% Brij35 added fresh) was added to the 60 nL compound assay plate. The kinase reaction was started with 3 μL of a working solution of LRRK2 enzyme at a concentration of 4 μg/m L. The final reaction concentrations were 100 nM LRRKtide, 1 mM ATP, 2 μg/mL LRRK2 enzyme and a compound dose response with a top dose of 3 μM. The reaction was allowed to progress at room temperature for 30 minutes and then stopped with the addition of 6 μL of detection buffer (20 mM Tris pH 7.6, 0.01% NP-40, 6 mM EDTA with 2 nM terbium labeled antiphospho-ERM). […] All final concentrations of substrate ATP and enzyme were the same.

[1] = target: LRRK2, WT (GST-tagged truncated LRRK2) (Homo sapiens, UniProt Q5S007); test: LRRK2 kinase assay (LanthaScreen), wild type; format: biochemical
Procedure: as §1

[2] = wild type LRRK2, LanthaScreen, LRRKtide substrate

| IC50 (mutant G2019S LRRK2) [nM] | IC50 [1, 2] [nM] | Structure (SMILES) | IC50 [1] [nM] |
| --- | --- | --- | --- |
| 3.87 | 11.1 | COc1cnn(Cc2nc3cnc4ccc(C(F)(F)F)cc4c3n2[C@@H]2CCO[C@H](C)C2)c1 [Example 41, 2-[(4-methoxy-1H-pyrazol-1-yl)methyl]-1-[(2R,4R)-2-methyltetrahydro-2H-pyran-4-yl]-8-(trifluoromethyl)-1H-imidazo[4,5-c]quinoline] | – |
| 13.2 | 25.8 | CC(C#N)Cc1nc2cnc3ccc(Cl)cc3c2n1[C@@H]1CCO[C@H](C)C1 (stereo partly drawn) [Example 78, 3-{8-chloro-1-[(2R,4R)-2-methyltetrahydro-2H-pyran-4-yl]-1H-imidazo[4,5-c]quinolin-2-yl}-2-methylpropanenitrile] | – |
| 4.17 | 5.79 | C[C@@H]1C[C@H](n2c(Cc3nccs3)nc3cnc4ccc(C#N)cc4c32)CCO1 [Example 61, 1-[(2R,4R)-2-methyltetrahydro-2H-pyran-4-yl]-2-(1,3-thiazol-2-ylmethyl)-1H-imidazo[4,5-c]quinoline-8-carbonitrile] | – |
| 3.49 | 5.78 | Cc1cc(Cc2nc3cnc4ccc(Cl)cc4c3n2C2CN(C)CC2(F)F)no1 (centres unmarked) [Example 51, 8-chloro-1-(4,4-difluoro-1-methylpyrrolidin-3-yl)-2-[(5-methyl-1,2-oxazol-3-yl)methyl]-1H-imidazo[4,5-c]quinoline] | – |
| 1.11 | 5.06 | Cc1cnc(Cc2nc3cnc4ccc(Cl)cc4c3n2C2CN(C)CC2(F)F)cn1 (centres unmarked) [Example 50, 8-chloro-1-(4,4-difluoro-1-methylpyrrolidin-3-yl)-2-[(5-methylpyrazin-2-yl)methyl]-1H-imidazo[4,5-c]quinoline] | – |
| 3.5 | 4.6 | C[C@@H]1C[C@H](n2c(Cc3cnc(CO)cn3)nc3cnc4ccc(Cl)cc4c32)CCO1 [Example 95, [5-({8-chloro-1-[(2R,4R)-2-methyltetrahydro-2H-pyran-4-yl]-1H-imidazo[4,5-c]quinolin-2-yl}methyl)pyrazin-2-yl]methanol] | – |
| 12.9 | 7.49 | Cc1cnc(Cc2nc3cnc4ccc(C#N)cc4c3n2[C@@H]2CCN(C)C2)o1 [Example 38, 2-[(5-methyl-1,3-oxazol-2-yl)methyl]-1-[(3R)-1-methylpyrrolidin-3-yl]-1H-imidazo [4,5-c]quinoline-8-carbonitrile] | – |
| 5.06 | 18 | N#CCC1CC(n2c(C3CCC3)nc3cnc4ccc(Cl)cc4c32)CCO1 (single isomer, unassigned) [Example 11, [cis-4-(8-Chloro-2-cyclobutyl-1H-imidazo[4,5-c]quinolin-1-yl)tetrahydro-2H-pyran-2-yl]acetonitrile] | – |
| 4.63 | 5 | COc1cnn(Cc2nc3cnc4ccc(C#N)cc4c3n2[C@@H]2CCN(C)C2)c1 [Example 36, 2-[(4-methoxy-1H-pyrazol-1-yl)methyl]-1-[(3R)-1-methylpyrrolidin-3-yl]-1H-imidazo[4,5-c]quinoline-8-carbonitrile] | – |
| 8.01 | 8.32 | C[C@@H]1C[C@H](n2c(Cn3cncn3)nc3cnc4ccc(C(F)(F)F)cc4c32)CCO1 [Example 66, 1-[(2R,4R)-2-methyltetrahydro-2H-pyran-4-yl]-2-(1H-1,2,4-triazol-1-ylmethyl)-8-(trifluoromethyl)-1H-imidazo[4,5-c]quinoline] | – |
| 7.5 | 16.9 | Cc1nnn(Cc2nc3cnc4ccc(C(F)(F)F)cc4c3n2[C@@H]2CCO[C@H](C)C2)n1 [Example 81, 1-[(2R,4R)-2-methyltetrahydro-2H-pyran-4-yl]-2-[(5-methyl-2H-tetrazol-2-yl)methyl]-8-(trifluoromethyl)-1H-imidazo[4,5-c]quinoline] | – |
| 8.87 | 10.2 | CCc1nc2cnc3ccc(Cl)cc3c2n1[C@@H]1CCO[C@H](CC#N)C1 [Example 1, [(2S,4R)-4-(8-Chloro-2-ethyl-1H-imidazo[4,5-c]quinolin-1-yl)tetrahydro-2H-pyran-2-yl]acetonitrile] | – |
| 8.03 | 13.9 | Cc1nnc(Cc2nc3cnc4ccc(Cl)cc4c3n2C2CN(C)CC2(F)F)s1 (centres unmarked) [Example 89, 8-chloro-1-(4,4-difluoro-1-methylpyrrolidin-3-yl)-2-[(5-methyl-1,3,4-thiadiazol-2-yl)methyl]-1H-imidazo[4,5-c]quinoline] | – |
| 18.2 | 10.2 | CN1CC(n2c(Cc3ncn(C)n3)nc3cnc4ccc(Cl)cc4c32)C(F)(F)C1 (centres unmarked) [Example 84, 8-chloro-1-(4,4-difluoro-1-methylpyrrolidin-3-yl)-2-[(1-methyl-1H-1,2,4-triazol-3-yl)methyl]-1H-imidazo[4,5-c]quinoline] | – |
| 6.48 | 6.35 | FC1(F)COCCC1n1c(Cn2cc(C3CC3)nn2)nc2cnc3ccc(Cl)cc3c21 (centres unmarked) [Example 94, 8-chloro-2-[(4-cyclopropyl-1H-1,2,3-triazol-1-yl)methyl]-1-(3,3-difluorotetrahydro-2H-pyran-4-yl)-1H-imidazo[4,5-c]quinolone] | – |
| 11.6 | 7.91 | CN1CC(n2c(Cn3cnnn3)nc3cnc4ccc(Cl)cc4c32)C(F)(F)C1 (centres unmarked) [Example 83, 8-chloro-1-(4,4-difluoro-1-methylpyrrolidin-3-yl)-2-(1H-tetrazol-1-ylmethyl)-1H-imidazo[4,5-c]quinoline] | – |
| 6.91 | 10.9 | Cc1nnc(Cc2nc3cnc4ccc(Cl)cc4c3n2C2CCOCC2(F)F)s1 (centres unmarked) [Example 92, 8-chloro-1-(3,3-difluorotetrahydro-2H-pyran-4-yl)-2-[(5-methyl-1,3,4-thiadiazol-2-yl)methyl]-1H-imidazo[4,5-c]quinoline] | – |
| 8.4 | 18 | Cc1cc(Cc2nc3cnc4ccc(C(F)F)cc4c3n2[C@@H]2CCO[C@H](C)C2)no1 [Example 91, 8-(difluoromethyl)-2-[(5-methyl-1,2-oxazol-3-yl)methyl]-1-[(2R,4R)-2-methyltetrahydro-2H-pyran-4-yl]-1H-imidazo[4,5-c]quinoline] | – |
| 8.67 | 7.86 | Cc1nc2cnc3ccc(Cl)cc3c2n1C1CCOC(CC#N)C1 (stereo not drawn) [Example 31, [cis-4-(8-chloro-2-methyl-1H-imidazo[4,5-c]quinolin-1-yl)tetrahydro-2H-pyran-2-yl]acetonitrile] | – |
| 6.17 | 7.57 | Cc1cc(Cc2nc3cnc4ccc(C#N)cc4c3n2[C@@H]2CCN(C)C2)on1 [Example 35, 2-[(3-methyl-1,2-oxazol-5-yl)methyl]-1-[(3R)-1-methylpyrrolidin-3-yl]-1H-imidazo [4,5-c]quinoline-8-carbonitrile] | – |
| 7.59 | 13.7 | Cc1nnc(Cc2nc3cnc4ccc(C(F)(F)F)cc4c3n2[C@@H]2CCO[C@H](C)C2)o1 [Example 70, 2-[(5-methyl-1,3,4-oxadiazol-2-yl)methyl]-1-[(2R,4R)-2-methyltetrahydro-2H-pyran-4-yl]-8-(trifluoromethyl)-1H-imidazo[4,5-c]quinoline] | – |
| 12 | 17.3 | Cc1cc(Cc2nc3cnc4ccc(C(F)(F)F)cc4c3n2[C@@H]2CCO[C@H](C)C2)ncn1 [Example 76, 2-[(6-methylpyrimidin-4-yl)methyl]-1-[(2R,4R)-2-methyltetrahydro-2H-pyran-4-yl]-8-(trifluoromethyl)-1H-imidazo[4,5-c]quinoline] | – |
| 12.6 | 5.26 | Cc1nnc(Cc2nc3cnc4ccc(C#N)cc4c3n2[C@@H]2CCN(C)C2)s1 [Example 37, 1-[(3R)-1-methylpyrrolidin-3-yl]-2-[(5-methyl-1,3,4-thiadiazol-2-yl)methyl]-1H-imidazo[4,5-c]quinoline-8-carbonitrile] | – |
| 9.75 | 9.73 | Fc1ccc2ncc3nc(Cc4csnn4)n(C4CCC(F)C4)c3c2c1 (stereo not drawn) [Example 79, 8-fluoro-1-[cis-3-fluorocyclopentyl]-2-(1,2,3-thiadiazol-4-ylmethyl)-1H-imidazo[4,5-c]quinoline] | – |
| 12.9 | 15.1 | Cc1cc(Cc2nc3cnc4ccc(Cl)cc4c3n2C2CN(C)CC2(F)F)no1 (centres unmarked) [Example 52, 8-chloro-1-(4,4-difluoro-1-methylpyrrolidin-3-yl)-2-[(5-methyl-1,2-oxazol-3-yl)methyl]-1H-imidazo[4,5-c]quinoline] | – |

| Structure (SMILES) | IC50 (mutant G2019S LRRK2) [nM] | IC50 [1, 2] [nM] | IC50 [1] [nM] |
| --- | --- | --- | --- |
| Cc1cnc(Cc2nc3cnc4ccc(C(F)(F)F)cc4c3n2[C@@H]2CCO[C@H](C)C2)cn1 [Example 29, 2-[(5-methylpyrazin-2-yl)methyl]-1-[(2R,4R)-2-methyltetrahydro-2H-pyran-4-yl]-8-(trifluoromethyl)-1H-imidazo[4,5-c]quinoline] | 4.13 | 6.47 | – |
| Cc1cnc(C(O)c2nc3cnc4ccc(Cl)cc4c3n2[C@@H]2CCO[C@H](C)C2)cn1 (single isomer, unassigned) [Example 14] | 12.8 | – | 14.2 |
| Cc1cnn(Cc2nc3cnc4ccc(C#N)cc4c3n2C2CN(C)CC2(F)F)n1 (single isomer, unassigned) [Example 4, 1-(4,4-Difluoro-1-methylpyrrolidin-3-yl)-2-[(4-methyl-2H-1,2,3-triazol-2-yl)methyl]-1H-imidazo[4,5-c]quinoline-8-carbonitrile] | 3.31 | 17.6 | – |
